Test results: article PMC8202924, “Emodepside targets SLO-1 channels of Onchocerca ochengi and induces broad anthelmintic effects in a bovine model of onchocerciasis” (PLoS Pathogens, 2021)
Where two headings read alike, the source gives them in different places.

Experiments:
[1] = for Rumen contraction: over four days after treatment, from 1 contraction/min
Excerpt: Four non-pregnant, non-lactating cows naturally infected with O. ochengi were purchased from farmers in the Vina Division of the Adamawa Region and acclimatized at the IRAD Wakwa site for two weeks before the start of the trial. Cows were 3–6 years old and weighed 185–300 kg. They were housed in a 35 m^2 enclosure at night and fed with cotton seed cake (2 g/kg bodyweight) in the morning before grazing them on a 1 ha Brachiaria ruziziensis paddock between 9 am and 4 pm daily. Water and salt were supplied ad libitum when housed. Each cow was randomly allocated (by ear-tag number using an online research randomizer [available at https://www.randomizer.org]) to receive a single low dose of emodepside 0.15 mg/kg, a single high dose of emodepside 0.75 mg/kg, a low dose twice (emodepside 0.15 mg/kg on two consecutive days), or vehicle only (solketal). Prior to treatment, the cows were sedated with xylazine hydrochloride (Rompun). Verum or vehicle was administered IV into the jugular vein using a perfusion apparatus (Braun Perfusor Space) following an identical protocol to the Holstein pre-study described above.

[2] = Blood glucose in the main trial, test-strip assay; type: in vivo, zebu (Ngaoundéré Gudali) cattle (B. t. indicus)
Description: Glucose concentrations were measured pre- and post-chemotherapy using venous blood, which was analyzed in a test-strip assay (MediTouch 2 blood glucose monitor, Medisana, Neuss, Germany). Both individual animal and group blood-glucose concentrations were compared with a standard reference range for cattle (45–75 mg/dL [58]). To evaluate group-level effects, 95% confidence intervals (CI) were calculated using the group mean, SD and sample number for each group at each respective timepoint, with changes in blood glucose concentration considered significant if either the lower CI exceeded the upper limit of the standard reference range, or the upper CI was below the lower limit of the standard reference range.

[3] = system: Onchocerca ochengi adult worms in nodules; assay: Histopathology of nodules, worm integrity scores after Striebel; type: in vivo; parameters: key to Cumulative histopathological score, representative section: sum of 5 organ grades: 5 = healthy, 15 = max damage, 16 = debris/none; details: MRSM
Excerpt: Nodules for histopathology (n = 72) were collected up to day 290, after which few were available in the melarsomine (MRSM) group. For consistency, nodules were taken from the same three animals in each experimental group at each timepoint. Formalin-fixed nodules were embedded in paraffin, sectioned, and stained with hematoxylin and eosin or Giemsa as previously described or with Lendrum’s carbol chromotrope to specifically stain eosinophils.
Histological sections of nodules were scored by a single observer blinded to treatment group using the form proposed by Striebel, which was developed based on observations of O. volvulus (human) and Onchocerca gibsoni (bovine) nodules. In the current study, O. ochengi nodules were graded by applying a similar system in which the integrity of five structures or organs (cuticle, hypodermis, longitudinal muscle, pseudocoelomic cavity and gut) were classified through microscopical assessment of specific anatomical features (e.g., vacuoles in the hypodermis or host cells visible in the pseudocoelomic cavity) according to the categories in Table A in S1 Text. These grades were used to assign a pathology score for each aspect of parasite anatomy examined. Scores for all five structures or organs were then added together to produce a cumulative overall score, with a minimum score of 5 for parasite sections judged to be healthy across all five structures or organs. Since parasite sections showing extensive damage across all five anatomical regions could score a maximum of 15, sections containing cuticular debris only, or where parasites were unidentifiable in the section, were allocated a total score of 16. Where sections of male worms were present in the nodule these were scored separately to the females. Some sections contained more than one conjoined nodule. In these cases, females were also scored and recorded individually.
The effect of different treatments relative to either (a) no treatment controls or (b) pre-treatment observations of parasite integrity was analyzed using linear mixed effects models with the nonlinear mixed effects model package in R [63, 64]. Overall scores for parasite integrity were modelled as the response variable compared with (a) treatment groups for each timepoint and (b) different timepoints for each respective treatment group. In both cases, animal identity was modelled as a random effect to account for repeat observations taken from the same individual, and results were adjusted using a post-hoc Bonferroni correction for multiple comparisons. Similarly, to assess the effect of different treatments on cellular infiltrates over time, total PMN or eosinophil counts per high-power field and eosinophils as a percentage of the total PMN population were each modelled as […] variables compared with (a) treatment groups for each timepoint and (b) different timepoints for each respective treatment group.

[4] = system: Onchocerca ochengi adult female worms; assay: MTT assay for metabolic activity of worms from nodules; type: in vivo; details: MRSM, 4 mg/kg every other day for 3 days; day 550
Description: Worms from a second unfixed nodule (at the same timepoints listed above) were subjected to a 3-(4,5-dimethylthiazol-2-yl)-2,5-diphenyltetrazolium bromide (MTT) assay for metabolic activity, in which the insoluble formazan product was dissolved in DMSO and quantified colorimetrically at 620 nm in a microplate reader (model LT4500, Labtech, Heathfield, East Sussex, UK). Finally, dermal microfilarial densities were determined by incubation of skin biopsies (in triplicate per animal per timepoint) and normalized to 100 mg skin [59].

[5] = 4 mg/kg every other day for 3 days, day 90
[6] = 4 mg/kg every other day for 3 days, day 180
[7] = 4 mg/kg every other day for 3 days, day 290

CC(C)C[C@H]1C(=O)O[C@H](Cc2ccc(N3CCOCC3)cc2)C(=O)N(C)[C@@H](CC(C)C)C(=O)O[C@H](C)C(=O)N(C)[C@@H](CC(C)C)C(=O)O[C@H](Cc2ccc(N3CCOCC3)cc2)C(=O)N(C)[C@@H](CC(C)C)C(=O)O[C@H](C)C(=O)N1C [emodepside]
Adverse effects ([1]; 0.15 mg/kg IV, over 1 h following administration): mild muscular tremors and salivation | Rumen contraction ([1]; 0.15 mg/kg IV): 1.5 contractions/min | Heart rate ([1]; 0.75 mg/kg IV, 6 h post treatment, increasing from 72 bpm, normal on day 4): 80 bpm | Blood glucose concentration ([1]; 0.75 mg/kg IV, 8 h after treatment): 158 to 200 mg/dL | Blood glucose concentration ([1]; 0.75 mg/kg IV, by 24 h (within the normal range)): 61 mg/dL | Rumen contraction ([1]; 0.75 mg/kg IV): 2 contractions/min | Temperature and respiratory rates ([1]; 0.15 and 0.75 mg/kg IV): not affected | Blood glucose, group-level 95% CI vs reference range 45–75 mg/dL ([2]; EMO1H, 0.75 mg/kg single dose, at 30 min, 2 and 6 h): significantly above the standard reference range | Blood glucose, group-level 95% CI vs reference range 45–75 mg/dL ([2]; EMO1L, 0.15 mg/kg single dose, at 30 min, 2 and 6 h): significantly above the standard reference range | Blood glucose, group-level 95% CI vs reference range 45–75 mg/dL ([2]; EMO7H, 0.75 mg/kg daily for 7 days, at 2 h): significantly above the standard reference range

NCCS[As](SCCN)c1ccc(Nc2nc(N)nc(N)n2)cc1 [melarsomine]
Cumulative pathology scores of worm sections ([3]; 4 mg/kg every other day for 3 days, all post-treatment timepoints, P <0.05): significantly higher pathology scores than PCBO | Cumulative histopathological worm score, mixed-effects coefficient (SE) vs placebo [3, 5]: 8.00 (2.01) | Cumulative histopathological worm score, mixed-effects coefficient (SE) vs pre-treatment (day 1) [3, 5]: 9.45 (1.81) | Degenerate nodules (no parasite sections or only cuticular fragments), of three nodules [3, 5]: 1 | Mean histopathological score, cuticle [3, 5]: 3.00 | Mean histopathological score, gut [3, 5]: 3.33 | Mean histopathological score, hypodermis [3, 5]: 3.33 | Mean histopathological score, longitudinal muscle [3, 5]: 2.67 | Mean histopathological score, pseudocoleomic cavity [3, 5]: 3.33 | Cumulative histopathological worm score, mixed-effects coefficient (SE) vs placebo [3, 6]: 7.31 (2.41) | Cumulative histopathological worm score, mixed-effects coefficient (SE) vs pre-treatment (day 1) [3, 6]: 8.12 (1.81) | Degenerate nodules (no parasite sections or only cuticular fragments), of three nodules [3, 6]: 2 | Mean histopathological score, cuticle [3, 6]: 3.33 | Mean histopathological score, gut [3, 6]: 3.00 | Mean histopathological score, hypodermis [3, 6]: 3.00 | Mean histopathological score, longitudinal muscle [3, 6]: 3.00 | Mean histopathological score, pseudocoleomic cavity [3, 6]: 3.33 | Cumulative histopathological worm score, mixed-effects coefficient (SE) vs placebo [3, 7]: 8.67 (2.97) | Cumulative histopathological worm score, mixed-effects coefficient (SE) vs pre-treatment (day 1) [3, 7]: 11.11 (1.81) | Degenerate nodules (no parasite sections or only cuticular fragments), of three nodules [3, 7]: 3 | Mean histopathological score, cuticle [3, 7]: 4.00 | Mean histopathological score, gut [3, 7]: 4.00 | Mean histopathological score, hypodermis [3, 7]: 4.00 | Mean histopathological score, longitudinal muscle [3, 7]: 4.00 | Mean histopathological score, pseudocoleomic cavity [3, 7]: 4.00 | Cumulative histopathological score, representative section ([3]; day 290, animal B0435, degenerate nodule, no parasites): 16 | MTT reduction, worms recovered [4]: no intact worms were recovered | Blood glucose, group-level 95% CI vs reference range 45–75 mg/dL ([2]; MRSM, 4 mg/kg every other day for 3 days, at 5 and 30 min and 2 h): significantly above the standard reference range
